# From BindingDB's records for doi:10.1021/jm060108a (University of Liège, 2006)
# Assay: Inhibition of U46619-induced platelet aggregation
row,Structure (SMILES),IC50 [nM]
1,CCCCCNC(=O)NS(=O)(=O)c1cc([N+](=O)[O-])ccc1Nc1ccc(C)cc1,278
2,Cc1ccc(Nc2ccc([N+](=O)[O-])cc2S(=O)(=O)NC(=O)N2CCCCC2)cc1 [N-[2-(4-methylphenylamino)-5-nitrobenzenesulfonyl]-piperidine-1-carboxamide],900
3,CCCCCNC(=O)NS(=O)(=O)c1cc([N+](=O)[O-])ccc1Oc1ccc(C)cc1 [N-n-pentyl-N'-[2-(4-methylphenoxy)-5-nitrobenzenesulfonyl]urea],670
4,"Cc1cccc(C)c1Nc1ccc([N+](=O)[O-])cc1S(=O)(=O)NC(=O)NC(C)(C)C [N-tert-butyl-N'-[2-(2,6-dimethylphenylamino)-5-nitrobenzenesulfonyl]urea]",90

# Further lines, results first:
row,IC50 [nM],Structure (SMILES)
1,240,Cc1ccc(Nc2ccc([N+](=O)[O-])cc2S(=O)(=O)NC(=O)NC(C)(C)C)cc1 [BM 573]
2,300,Cc1ccc(Oc2ccc([N+](=O)[O-])cc2S(=O)(=O)NC(=O)NC(C)(C)C)cc1 [N-tert-butyl-N'-[2-(4-methylphenoxy)-5-nitrobenzenesulfonyl]urea]
3,800,Cc1ccc(Sc2ccc([N+](=O)[O-])cc2S(=O)(=O)NC(=O)NC(C)(C)C)cc1 [N-tert-butyl-N'-[2-(4-methylphenylthio)-5-nitrobenzenesulfonyl]urea]
